According to article PMC9154761, “Development of Praziquantel sulphonamide derivatives as antischistosomal drugs” (Journal of Enzyme Inhibition and Medicinal Chemistry, 2022):

What was measured:
hCA I = target: T1, hCA I (Homo sapiens, UniProt P00915); assay: stopped flow CO2 hydrase assay, hCA I; assay type: biochemical; details: mean from three different assays
T1 construct: made in house
Method: (§1) An Applied Photophysics stopped-flow instrument was used to assay the CA catalysed CO2 hydration activity. […] The CO2 concentrations ranged from 1.7 to 17 mM for the determination of the kinetic parameters and inhibition constants. […] For each inhibitor, at least six traces of the initial 5–10% of the reaction were used to determine the initial velocity. The uncatalyzed rates were determined in the same manner and subtracted from the total observed rates. Stock solutions of the inhibitor (0.1 mM) were prepared in distilled–deionized water and dilutions up to 0.01 nM were done thereafter with the assay buffer. Inhibitor and enzyme solutions were preincubated together for 15 min at room temperature prior to the assay, to allow for the formation of the E–I complex. The inhibition constants were obtained by non-linear least-squares methods using PRISM 3 and the Cheng-Prusoff equation as reported earlier and represent the mean from at least three different determinations. All CA isoforms were recombinant proteins obtained in house, as reported earlier[14]^,[26–29].

SmCA = SmCA (Schistosoma mansoni, UniProt A0A3Q0KSG2); assay: biochemical; details: stopped flow CO2 hydrase assay; mean from three different assays; read-out: Ki SmCA
Method: (§2) An Applied Photophysics stopped-flow instrument was used to assay the CA catalysed CO2 hydration activity. […] The uncatalyzed rates were determined in the same manner and subtracted from the total observed rates. Stock solutions of the inhibitor (0.1 mM) were prepared in distilled–deionized water and dilutions up to 0.01 nM were done thereafter with the assay buffer. Inhibitor and enzyme solutions were preincubated together for 15 min at room temperature prior to the assay, to allow for the formation of the E–I complex. The inhibition constants were obtained by non-linear least-squares methods using PRISM 3 and the Cheng-Prusoff equation as reported earlier and represent the mean from at least three different determinations. All CA isoforms were recombinant proteins obtained in house, as reported earlier[14]^,[26–29].

LdCA = LdCA (Leishmania donovani, UniProt A0A3S5H5R2); assay: biochemical; details: stopped flow CO2 hydrase assay; mean from three different assays; read-out: Ki LdCA
Method: as §2

hCA IX = target: T2, hCA IX (Homo sapiens, UniProt Q16790); assay: stopped flow CO2 hydrase assay, hCA IX; assay type: biochemical; details: mean from three different assays
T2 construct: made in house
Method: as §1

hCA II = target: T3, hCA II (Homo sapiens, UniProt P00918); assay: stopped flow CO2 hydrase assay, hCA II; assay type: biochemical; details: mean from three different assays, read-out: Ki hCAII
T3 construct: made in house
Method: as §1

hCA IV = target: T4, hCA IV (Homo sapiens, UniProt P22748); assay: stopped flow CO2 hydrase assay, hCA IV; assay type: biochemical; details: mean from three different assays
T4 construct: made in house
Method: as §1

S. mansoni adult worms = assay: In vitro antischistosomal activity against adult S. mansoni worms; assay type: cell-based, Schistosoma mansoni; details: 10 μM, 72 h, viability via microscopy
Method: (§3) In vitro studies were carried out in accordance with Swiss national and cantonal regulations on animal welfare under the permission number 2070. The drug sensitivity assays with S. mansoni (adult and newly transformed schistosomules (NTS)) were carried out as described recently. Briefly, to obtain NTS, cercariae were collected from infected Biomphalaria glabrata snails and were mechanically transformed. Adult S. mansoni worms were collected by dissecting the mesenteric veins of infected mice at day 49 postinfection. Approximately 30–40 NTS were incubated with the respective test drug in 250 µL of M199 medium (Gibco, Waltham, MA) supplemented with 5% (v/v) foetal calf serum (FCS) (Bioconcept AG, Switzerland), 1% (v/v) penicillin/streptomycin solution (Sigma–Aldrich, Switzerland) and 1% (v/v) antibacterial/antifungal solution for up to 72 h at 37 °C and 5% CO2. The drug was tested at 10 µM in triplicate and repeated once. Three adult S. mansoni were incubated in a final volume of 2 mL rpmI 1640 supplemented with 5% (v/v) FCS and 1% (v/v) penicillin/streptomycin at 37 °C and 5% CO2 for 72 h at 10 µM. The experiment was conducted in duplicate. Worms were judged via microscopic readout 72 h after incubation; they were scored according to phenotypic reference points such as motility, morphology and granularity (scores from 0 to 3).

[1] = tested on: newly transformed schistosomula (NTS); assay: In vitro antischistosomal activity against newly transformed schistosomula (NTS); assay type: cell-based, Schistosoma mansoni; details: 10 μM, after 72 h of exposure, viability via microscopy
Method: as §3

Chain of SmCA (A0A3Q0KSG2 entry or part of it): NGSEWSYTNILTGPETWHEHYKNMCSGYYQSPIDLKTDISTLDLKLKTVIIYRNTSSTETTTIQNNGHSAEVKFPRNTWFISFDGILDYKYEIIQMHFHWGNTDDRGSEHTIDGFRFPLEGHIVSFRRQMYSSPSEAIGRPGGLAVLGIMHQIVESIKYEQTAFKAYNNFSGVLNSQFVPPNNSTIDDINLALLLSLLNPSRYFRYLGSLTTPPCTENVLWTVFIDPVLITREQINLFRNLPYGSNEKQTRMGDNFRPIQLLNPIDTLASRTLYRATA
T1 sequence (P00915 whole entry): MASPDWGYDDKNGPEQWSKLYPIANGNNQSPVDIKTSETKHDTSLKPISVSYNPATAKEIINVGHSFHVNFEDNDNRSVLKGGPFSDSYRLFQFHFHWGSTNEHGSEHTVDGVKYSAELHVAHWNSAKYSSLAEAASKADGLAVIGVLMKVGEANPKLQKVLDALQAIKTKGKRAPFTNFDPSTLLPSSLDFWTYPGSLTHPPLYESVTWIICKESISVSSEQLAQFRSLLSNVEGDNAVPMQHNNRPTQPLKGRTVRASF
Chain of LdCA (A0A3S5H5R2 entry or part of it): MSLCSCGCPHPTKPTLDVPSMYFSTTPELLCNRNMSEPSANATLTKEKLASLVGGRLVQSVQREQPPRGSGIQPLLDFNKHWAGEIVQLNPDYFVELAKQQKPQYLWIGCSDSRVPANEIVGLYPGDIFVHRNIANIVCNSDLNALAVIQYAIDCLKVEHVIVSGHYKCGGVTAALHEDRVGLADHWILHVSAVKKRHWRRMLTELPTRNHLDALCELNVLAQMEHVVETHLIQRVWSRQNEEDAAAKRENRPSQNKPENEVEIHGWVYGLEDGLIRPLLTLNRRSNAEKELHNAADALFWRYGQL
T4 sequence (P22748 19-312): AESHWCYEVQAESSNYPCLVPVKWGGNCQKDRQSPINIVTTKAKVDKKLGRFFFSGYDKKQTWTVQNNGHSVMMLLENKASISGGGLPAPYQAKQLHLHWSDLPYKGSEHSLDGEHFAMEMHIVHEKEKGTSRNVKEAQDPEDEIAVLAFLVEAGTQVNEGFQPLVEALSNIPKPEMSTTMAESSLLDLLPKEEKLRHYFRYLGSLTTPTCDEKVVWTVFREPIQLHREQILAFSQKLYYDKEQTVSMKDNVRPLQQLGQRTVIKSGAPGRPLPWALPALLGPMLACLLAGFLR

SMILES	Ki (hCA I)	Ki (SmCA)	Ki (LdCA)	Ki (hCA IX)	Ki (hCA II)	Ki (hCA IV)	activity against adult S. mansoni worms (S. mansoni adult worms)	activity against NTS [1]
NS(=O)(=O)c1ccc(CCC(=O)N2CC(=O)N3CCc4ccccc4C3C2)cc1 (stereo not shown) [Compound 4b, 4–(3-Oxo-3–(4-oxo-1,3,4,6,7,11b-hexahydro-2H-pyrazino[2,1-a]isoquinolin-2-yl)propyl) benzenesulfonamide]	67.7 ± 5.1 nM	93.6 ± 7 nM	417 ± 33.9 nM	139 ± 8 nM	17.5 ± 1 nM	785 ± 58.3 nM	20.9%	–
NS(=O)(=O)c1ccc(NC(=O)N2CC(=O)N3CCc4ccccc4C3C2)cc1 (stereo not shown) [Compound 34a, 4-Oxo-N-(4-sulfamoylphenyl)-1,3,4,6,7,11b-hexahydro-2H-pyrazino[2,1-a]isoquinoline-2-carboxamide]	70.4 ± 5.7 nM	59.6 ± 4.3 nM	253 ± 19.4 nM	24.7 ± 1.44 nM	8.4 ± 0.8 nM	4410 ± 371 nM	30.6%	over 30%
NS(=O)(=O)c1ccc(NC(=O)NCc2ccc(C(=O)N3CC(=O)N4CCc5ccccc5C4C3)cc2)cc1 (stereo not shown) [Compound 28a, 4–(3-(4–(4-Oxo-1,3,4,6,7,11b-hexahydro-2H-pyrazino[2,1-a]isoquinoline-2-carbonyl)benzyl)ureido)benzenesulfonamide]	74.4 ± 3.9 nM	614 ± 50.6 nM	340 ± 33.9 nM	31.8 ± 1.8 nM	8.2 ± 0.7 nM	548 ± 29.6 nM	–	over 30%
